The text below walks through data of US8496967B2, “Oral formulations” (ARIAD Pharmaceuticals, Inc., priority 2006, dated 2013).

In data set [1] the test system is human tumor cell lines, including prostate, endometrial, soft tissue and bone sarcoma, leukemia, lymphoma and glioblastoma cell lines. Description: in vitro proliferation of human tumor cell lines. Type of data set: cell-based.
Data set [2] shares this test system. Description: in vivo xenograft models of human tumor cell lines. (In xenograft studies the graft and the host belong to different species.)
Data set [3] can be described thus: study of the degradation of AP23573. It is filed as physicochemical.

Consider `CO[C@H]1C[C@@H]2CC[C@@H](C)[C@@](O)(O2)C(=O)C(=O)N2CCCC[C@H]2C(=O)O[C@H]([C@H](C)C[C@@H]2CC[C@@H](OP(C)(C)=O)[C@H](OC)C2)CC(=O)[C@H](C)/C=C(\C)[C@@H](O)[C@@H](OC)C(=O)[C@H](C)C[C@H](C)/C=C/C=C/C=C/1C` [AP23573, 43-dimethylphosphinate ester of rapamycin], for which the “inhibition of proliferation of human tumor cell lines” value in data set [1] and in data set [2] was “potently inhibited proliferation” each time. The aqueous degradation result in data set [3] (aqueous, forms ring opened seco-AP23573) is on record as “undergoes aqueous degradation via cleavage of a lactone bond”. The oxidative degradation pathway result in data set [3] (oxidation) is “oxidation of the compound's triene moiety”.
